The values that follow come from patent US20130289023A1, “METHOD FOR TREATING BRAIN TUMOR” (priority 2012, published 2013).

Data set [1] has as its system U87MG sphere cells (cancer stem-like cells).
For the next data set, the system named is GBM cells. Put plainly: Autophagy and ER stress markers in GBM cells (western blot). Particulars: for autophagy in GBM cells: GBM8401 and U87MG cells, western blot markers. The data set is classed as cell-based. The method, then: (§1) The cells were lysed in a lysis buffer (50 mM Tris-HCl, pH 7.4, 5 mM MgCl2, 1% Nonidet P-40, 150 mMNaCl, 1 mM phenylmethylsulfonyl fluoride). Total protein was isolated and subjected to SDS polyacrylamide gel electrophoresis and electrotransfered onto PVDF membranes (Millipore). Primary antibodies, including p-mTOR (Ser 2448), mTOR, PI3K (P110α), p-Akt (Ser 473), Akt, p-S6K (Ser 424), S6K, p-AMPK (Thrl72), AMPK, and CASP3, were obtained from Cell Signaling and LC3 was from Abgent, and secondary antibodies for anti-mouse and anti-rabbit horseradish preoxidase (HRP)-conjugation were from Chemicon International. The protein detection was performed with enhanced chemiluminescence (ECL™) method captured by a Luminescence Imaging System (LAS-4000™, Fuji Photo Film Co., Ltd),
(§2) We observed several protein expression changes, primarily involved in autophagic and cell growth related pathway, it was shown that GBM cells are more sensitive to agents that induce autophagy than apoptosis. Thus, we examined the PI3K-Akt-mTORcascade with known roles m regulation of autophagy.

Data set [2] relates to GBM8401 cells. The data set can be described thus: MTT cell viability assay in GBM8401. The settings on record: for cell death: GBM8401, 1 to 10 μM, 72 hr, FIG. 1(B). As for the experimental part: To examine the cytotoxicity of anti-psychotic drugs on malignant glioma, GBM8401 cells were treated with 21 anti-psychotic drugs at 10 μM, respectively, for 72 hr.
Data set [3] concerns U87MG cells. Put plainly: Cell viability / cell death in U87MG. The settings on record: 1 to 10 μM, 72 hr, FIG. 1(B). The data set is classed as cell-based.
For data set [4], the system named is U87MG cells. The data set can be described thus: U87MG subcutaneous tumor in NOD/SCID mice. The data set is classed as in vivo. The settings on record: 5 days/week. As for the experimental part: Female NOD/SCID, 4-6 weeks of age were purchased from the National Laboratory Animal Center (NLAC) (Taipei, Taiwan). All protocols were approved by the institutional animal care committee of Taipei Medical University Hospital Mice were inoculated with U87MG cells in the right flank of NOD/SCID mice (1×10^6 cells/100 μL PBS, subcutaneous infection) and divided into control (sham) and thioridazine-treatment groups (5 mg/kg/day, 5 days/week). N=5 in each group. Tumor burden was measured on a weekly basis using a caliper and calculated using the following formula (a×b^2)/2, where a and b represents the long and short axis of the tumor respectively.
By the end of 6 weeks, animals were humanely sacrificed and tumor biopsies were collected.

The test system of data set [5] is U87MG cells. The data set can be described thus: Western blot analysis in U87MG. The data set is classed as cell-based. Particulars: 24 hr. As for the experimental part:
as §1, §2
(§3) Pathway analysis of differentially expressed gene signatures obtained from microarray profiling was investigated via Consensus PathDB. Several thioridazine-mediated pathways were highlighted, including pathway in cancer, GPCR signaling, senescence and autophagy, DMA damage response, and G1 to S cell cycle control (FIGS. 4(A) and 4(B)). Because G-protein couple receptors (GPCR) are membrane associated proteins and have been widely recognized as drug targets. Therefore, we tested whether GPCR might be the target of thioridazine.
A general note: A western blot detects proteins with antibodies after separation by electrophoresis.

Data set [6] concerns U87MG cells. The data set can be described thus: Side population assay (flow cytometry) in U87MG. The data set is classed as cell-based. The settings on record: 10 μM, decreased from 1.43%. As for the experimental part:
(§4) The cells were detached from the dishes with trypsin-EDTA (Invitrogen), and suspended in a single-cell suspension at 1×10^6 cells/mL in Hank's balanced salt solution (HBSS) supplemented with 3% fetal calf serum and 10 mM Hepes. The cells were then incubated at 37° C. for 90 min with 20 μg/mL Hoechst 33342 (Sigma Chemical, St. Louis, Mo.), either alone or in the presence of 50 μmol/L verapamil (Sigma), an inhibitor of the verapamil-sensitive ABC transporter. After incubation, the cells were centrifuged immediately for 5 min at 300 g and 4° C. and resuspended in ice-cold HBSS, The cells were kept on ice to inhibit efflux of the Hoechst dye, and 1 μg/mL propidium Iodide (BD) was added to discriminate dead cells. Finally, these cells were filtered through a 40 μm cell strainer (BD) to obtain a single-cell suspension. Dual-wavelength analysis and purification were performed on a dual-laser PACS. Vantage SE machine (BD). Hoechst 33342 was excited with a 355 nm UV light and emitted blue fluorescence with a 450/20 band-pass (BP) filter and red fluorescence with a 675 nm edge filter long-pass (EFLP). A 610 nm dichroic mirror short-pass (DMSP) was used to separate the emission wavelengths. Pi-positive (dead) cells were excluded from the analysis.
(In general: Flow cytometry measures light scatter and fluorescence of single cells or particles in a stream.)

For data set [7], the system named is GBM8401 cells. The data set can be described thus: Western blot analysis in GBM8401. The data set is classed as cell-based. The settings on record: 24 hr. As for the experimental part:
as §1, §2, §3

Another data set concerns primary GBM spheroids. The data set can be described thus: Tumor spheroid assay. The data set is classed as cell-based. As for the experimental part: For the formation of tumor spheroids, cells were cultured in HEScGRO serum-free medium (human) (Chemicon) supplemented with 20 ng/mL Hegf, 10 ng/mL hFGF-b and NeuroCult MS-A proliferation supplements. Cells were seeded at low densities (1000 cells/mL) in 12-well low adhesion plates at 1 mL, per well Spheroids (tight, spherical, non-adherent masses >90 um in diameter) were counted, and at least 50 spheroids per group were measured with an ocular micrometer. For secondary spheroid-forming assays, primary spheroids were dissociated mechanically and processed as in the primary assay. For the quantification of the percentage of spheroid-forming cells, cells were seeded at one cell per well in 96-well plates, […]

The test system of data set [8] is GBM8401 cells. The data set can be described thus: Side population assay (flow cytometry) in GBM8401. Particulars: 10 μM, decreased from 1.26%. The data set is classed as cell-based. As for the experimental part: as §4
[9] abbreviates: U87MG sphere cells, 10 and 20 μM, 24 hr.

Like-named read-outs stand apart in the source and are kept apart here. Where only a bound is given, the exact number is not on record here.

What is called cell viability is the share of living cells, or the viability signal relative to a control. Read a high cell viability as less harm to the cells. As for trifluoperazine, the cell viability result in data set [1] (setting [9]) is on record as “significantly reduced”.
With prochlorperazine, the cell viability result in [1] (U87MG sphere cells, 10 and 15 μM, 24 hr) is “significantly reduced”.
As to fluphenazine, the “autophagy in GBM cells” value with GBM cells is “induce autophagye”. The cell death entry in the data set on GBM8401 cells [2] and in the data set with U87MG cells [3] was “dose-dependent increase in cell death” each time.
What is called IC50 is the concentration needed to halve the response being measured. High values mean weaker potency in that assay, low ones greater potency in that assay. Take thioridazine: the “autophagy in GBM cells” value in the data set with GBM cells was “induce autophagye”. The “ER stress: IRE1a and ER stress-associated proteins (Bip and CHOP)” value in the data set with GBM cells (GBM cells) is on record as “accumulation”. The “tumor samples (biopsies) compared to control mice” value in the data set with U87MG cells [4] (5 mg/kg/day, end of 6 weeks) is “significantly smaller in size and less vascularized”. In addition, the “tumor burden compared to vehicle control” value in the data set on U87MG cells [4] (i.p. injection 5 mg/kg/day, NOD-SCID mice with U87MG cells) is “significantly smaller”. The “EDNRA, GPR17, GPRC5B (GPCR) expression” value is on record as “down-regulated” in the data set with U87MG cells [5] (10 μM) and “down-regulated” with GBM8401 cells [7] (GBM8401, 10 μM). Moreover, the “LC3-II and phospho-AMPK (THr172)” value with U87MG cells [5] (5 to 15 μM) is “up-regulated”; with GBM8401 cells [7] (GBM8401, 5 to 15 μM) it was “up-regulated”. Moreover, the “PI3K, phospho-Akt(Ser 473), phospho-mTOR(Ser 2448), phospho-S6K (Ser 424)” value in the data set on U87MG cells [5] (5 to 15 μM) was “down-regulated”; in the data set with GBM8401 cells [7] (GBM8401, 5 to 15 μM), “down-regulated”. In the data set on GBM8401 cells [2], this substance had an IC50 below 10 µM. Also, the cell death result with GBM8401 cells [2] and in the data set on U87MG cells [3] was “dose-dependent increase in cell death” each time. Besides, the cell viability is reported as 22% in data set [1] (10 µM) and “significantly reduced” in data set [1] (setting [9]). The figures for the “cancer stem-like cells population (side population)” value in the data set on U87MG cells [6] and in the data set on GBM8401 cells [8] were 0.1% and 0.03%, respectively. The “formation of primary GBM spheroids” value in the data set with primary GBM spheroids was “inhibited”.
